Experimental data taken from ChEMBL document CHEMBL4715829, “Heterodimeric Rifampicin-Tobramycin conjugates break intrinsic resistance of Pseudomonas aeruginosa to doxycycline and chloramphenicol in vitro and in a Galleria mellonella in vivo model” (Eur J Med Chem, 2019).

Experiments:
[1] = Toxicity in Galleria mellonella larvae assessed as larval […] at 100 mg/kg measured after 24 hrs; type: organism-based; settings: in vivo
Pseudomonas aeruginosa = assay: Antibacterial activity against Pseudomonas aeruginosa 260-97103 infected in Galleria mellonella larvae assessed as survival of larvae up to 50 mg/kg measured after 24 hrs relative to control; type: functional, organism-based; settings: dose mg/kg <=50, time 24.0 hrs
[2] = Cytotoxicity against human HepG2 cells assessed as cell viability at 12 uM incubated for 48 hrs by prestoblue assay; type: cell-based; settings: read-out: Activity
[3] = Cytotoxicity against human HEK293 cells assessed as cell viability at 12 uM incubated for 48 hrs by prestoblue assay; type: cell-based; settings: read-out: Activity

C[C@@H](O)[C@H]1C(=O)N2C(C(=O)O)=C(S[C@@H]3CN[C@H](C(=O)N(C)C)C3)[C@H](C)[C@H]12 [MEROPENEM]
mortality at 24 h [1]: 100%

COLISTIN
Survival (Pseudomonas aeruginosa): > 50%

COc1cccc2c1C(=O)c1c(O)c3c(c(O)c1C2=O)C[C@@](O)(C(=O)CO)C[C@@H]3O[C@H]1C[C@H](N)[C@H](O)[C@H](C)O1 [DOXORUBICIN]
viability at 48 h, 12 µM [2]: < 10%
viability at 48 h, 12 µM [3]: < 10%
